Measurements published in US6814960B1, “Hydroxystilbene compounds used as microbicidal active substances” (Ciba Specialty Chemicals Corporation, priority 1998, dated 2004).

Key:
Test in all cases: MIC value in microtitre plates (optical density)
Assay type in all cases: cell-based
[1] = system: Aspergillus niger ATCC 6275; settings: microtitre plate, Sabouraud 2% glucose bouillon, 5 days at 28° C., optical density 620 nm, ≦20% growth; some data indicative values
Experimental: (§1) Determination of the Minimum Inhibiting Concentration (MIC Value) in Microtitre Plates
(§2) Casein/soybean flour peptone bouillon for the preparation of the precultures of the test bacteria and yeast.
(§3) Mycological slant agar for the preculture of moulds.
(§4) Examples of Test Organisms
(§5) The test substances are predissolved in dimethyl sulfoxide (DMSO) and tested in a serial dilution of 1:2.
(§6) Bacteria and yeast are cultured overnight in CASO bouillon, the mould on mycological slant agar and rinsed off with 10 ml of 0.85% sodium chloride solution (+0.1% TritonX-100).
(§7) All test organisms are adjusted to an organism count of 1.5×10^6 CFU/ml with 0.85% sodium chloride solution.
(§8) The test substances are prepipetted into microtitre plates in an amount of 8 μl per well.
(§9) Previously diluted organism substances are diluted 1:100 in CASO bouillon (bacteria and yeast) and Sabouraud 2% glucose bouillon (mould) and added to the test substances in an amount of 192 μl per well.
(§10) The test batches are incubated for 48 hours at 37° C. (bacteria and yeast) or for 5 days at 28° C. (mould).
(§11) After incubation, the growth is determined by reference to the turbidity of the test batches (optical density) at 620 nm in a microplate reader.
(§12) The minimum inhibiting concentration (MIC value) is the concentration of substance at which (compared with the growth control) an appreciable inhibition of the growth (≦20% growth) of the test organisms is ascertained.
(§13) One microtiter plate is used for each test organism and substance concentration. All substances tested in duplicate.

[2] = system: Candida albicans ATCC 10231; settings: microtitre plate, CASO bouillon, 48 hours at 37° C., optical density 620 nm, ≦20% growth; some data indicative values
Experimental: as §1, §2, §3, §4, §5, §6, §7, §8, §9, §10, §11, §12, §13

[3] = system: Escherichia coli NCTC 8196; settings: microtitre plate, CASO bouillon, 48 hours at 37° C., optical density 620 nm, ≦20% growth; some data indicative values
Experimental: as §1, §2, §3, §4, §5, §6, §7, §8, §9, §10, §11, §12, §13

[4] = system: Pseudomonas aeruginosa CIP A-22; settings: microtitre plate, CASO bouillon, 48 hours at 37° C., optical density 620 nm, ≦20% growth; some data indicative values
Experimental: as §1, §2, §3, §4, §5, §6, §7, §8, §9, §10, §11, §12, §13

[5] = system: Staphylococcus hominis DSM 20328; settings: microtitre plate, CASO bouillon, 48 hours at 37° C., optical density 620 nm, ≦20% growth; some data indicative values
Experimental: as §1, §2, §3, §4, §5, §6, §7, §8, §9, §10, §11, §12, §13

SMILES	MIC values A. niger [1] [ppm]	MIC values C. albicans [2] [ppm]	MIC values E. coli [3] [ppm]	MIC values P. aeruginosa [4] [ppm]	MIC values S. heminis [5] [ppm]
COc1cc(/C=C/c2ccc(C)cc2)cc(O)c1OC [Comp. of formula 187]	>100	>100	>100	>100	>100
Oc1ccccc1/C=C/c1ccc(Cl)cc1 [Comp. of formula 125]	60	60	15	100	60
Cc1ccc(/C=C/c2ccccc2O)cc1 [Comp. of formula 186]	60	30	30	100	30
CCOc1cc(/C=C/c2ccc(-c3ccccc3)cc2)ccc1O [Comp. of formula 147]	>100	>100	>100	>100	>100
Oc1ccc(/C=C/c2ccccc2)cc1 [Comp. of formula 107]	100	>100	>100	>100	100
Oc1ccccc1/C=C/c1cccc2ccccc12 [Comp. of formula 162]	15	30	30	>100	7.5
CCOc1cc(/C=C/c2ccccc2)ccc1O [Comp. of formula 110]	>100	>100	>100	>100	>100
CCOc1cc(/C=C/c2cccc3ccccc23)ccc1O [Comp. of formula 159]	100	>100	>100	>100	>100
Oc1ccc(/C=C/c2cccc3ccccc23)cc1 [Comp. of formula 156]	30	15	60	>100	7.5
COc1cc(/C=C/c2ccc(C)cc2)ccc1O [Comp. of formula 184]	100	>100	>100	>100	>100
Cc1ccc(/C=C/c2ccc(O)cc2)cc1 [Comp. of formula 180]	>100	>100	>100	>100	100
Cc1ccccc1/C=C/c1ccccc1O [Comp. of formula 174]	60	60	100	>100	60
Oc1cccc(/C=C/c2cccc3ccccc23)c1 [Comp. of formula 157]	60	15	15	>100	7.5
COc1ccc(/C=C/c2ccc(O)cc2)cc1 [Comp. of formula 131]	>100	>100	>100	>100	>100
COc1cc(/C=C/c2ccc(-c3ccccc3)cc2)ccc1O [Comp. of formula 148]	>100	>100	>100	>100	>100
COc1cc(/C=C/c2ccc(Cl)cc2)ccc1O [Comp. of formula 123]	100	>100	>100	>100	>100
COc1cc(/C=C/c2ccc(-c3ccccc3)cc2)cc(O)c1OC [Comp. of formula 151]	>100	>100	>100	>100	>100

SMILES	MIC values A. niger [1] [ppm]	MIC values C. albicans [2] [ppm]	MIC values E. coli [3] [ppm]	MIC values P. aeruginosa [4] [ppm]	MIC values S. heminis [5] [ppm]
COc1ccc(/C=C/c2ccccc2C)cc1O [Comp. of formula 170]	>100	>100	>100	>100	>100
CCOc1cc(/C=C/c2ccc(C)cc2)ccc1O [Comp. of formula 183]	>100	>100	>100	>100	>100
COc1ccc(/C=C/c2cccc(O)c2)cc1 [Comp. of formula 132]	>100	>100	>100	>100	>100
Oc1ccc(/C=C/c2ccc(Cl)cc2)cc1 [Comp. of formula 119]	100	15	>100	>100	7.5
COc1ccc(/C=C/c2ccc(OC)c(O)c2)cc1 [Comp. of formula 133]	>100	>100	>100	>100	>100
Cc1ccccc1/C=C/c1ccc(O)cc1 [Comp. of formula 168]	30	15	30	100	7.5
COc1cc(/C=C/c2cccc3ccccc23)ccc1O [Comp. of formula 160]	100	>100	>100	>100	>100
CCOc1cc(/C=C/c2ccc(Cl)cc2)ccc1O [Comp. of formula 122]	>100	>100	>100	>100	>100
Cc1ccc(/C=C/c2cccc(C)c2O)cc1 [Comp. of formula 189]	>100	>100	100	>100	>100
COc1cc(/C=C/c2cccc3ccccc23)cc(O)c1OC [Comp. of formula 163]	100	>100	>100	>100	>100
COc1cc(/C=C/c2ccccc2C)ccc1O [Comp. of formula 172]	>100	10	>100	>100	>100
Oc1ccccc1/C=C/c1ccc(-c2ccccc2)cc1 [Comp. of formula 150]	>100	>100	>100	>100	>100
Oc1ccccc1/C=C/c1ccccc1 [Comp. of formula 113]	60	60	100	>100	100
Oc1cccc(/C=C/c2ccc(Cl)cc2)c1 [Comp. of formula 120]	30	7.5	7.5	>100	7.5
COc1ccc(/C=C/c2ccccc2)cc1O [Comp. of formula 109]	100	>100	>100	>100	>100
CCOc1cc(/C=C/c2ccc(OC)cc2)ccc1O [Comp. of formula 134]	>100	>100	>100	>100	>100
